Results from US20230095836A1, “SUBSTITUTED 5,6-DIPHENYL-3(2H)-PYRIDAZINONES FOR USE AS FUNGICIDES” (FMC Corporation, priority 2020, published 2023).

What was measured:
Type in all cases: in vivo
Zymoseptoria tritici = assay: Test A: test solution sprayed on wheat seedlings, inoculated next day with Zymoseptoria tritici (wheat leaf blotch); disease rating (100 = 100% disease control, 0 = no control; dash = not tested)
Summary of the method: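 Wheat seedlings sprayed to run-off with test solution, inoculated next day with Z. tritici spores, held 48 h at 24° C in saturated atmosphere, then 17 days at 20° C before rating. Scores are % disease control relative to controls (100 = full control, 0 = none).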

[1] = test system: Puccinia recondita f. sp. tritici; assay: Test B: test solution sprayed on wheat seedlings, inoculated next day with Puccinia recondita f. sp. tritici (wheat leaf rust); disease rating (100 = 100% disease control, 0 = no control; dash = not tested)
Description: The resulting test suspensions were then used in Tests A-F. The test solution was sprayed to the point of run-off on wheat seedlings. […] A rating of 100 indicates 100% disease control and a rating of 0 indicates no disease control (relative to the controls). A dash (—) indicates the compound was not tested.

[2] = test system: Blumeria graminis f. sp. tritici; assay: Test C: test suspension sprayed on wheat seedlings, inoculated next day with Blumeria graminis f. sp. tritici (wheat powdery mildew); visual disease rating (100 = 100% disease control, 0 = no control; dash = not tested)
Summary of the method: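 Wheat seedlings were sprayed to run-off with test suspension, then dusted next day with Blumeria graminis f. sp. tritici spores. After 8 days at 20 °C in a growth chamber, disease was rated visually as percent control relative to untreated controls.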

Phakopsora pachyrhizi = assay: Test D: test solution sprayed on soybean seedlings, inoculated next day with Phakopsora pachyrhizi (Asian soybean rust); visual disease rating (100 = 100% disease control, 0 = no control; dash = not tested)
Summary of the method: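 Compounds predissolved in acetone (3% of final volume), suspended at ppm concentrations in 50/50 acetone/water with 250 ppm PEG400, sprayed to run-off on soybean seedlings. Inoculated next day with spores, 24 h saturated atmosphere at 22 °C, then 8 days growth chamber at 22 °C; visual rating, 100 = full control.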

Botrytis cinerea = assay: Test E: test suspension sprayed on tomato seedlings, inoculated next day with Botrytis cinerea (tomato Botrytis); visual disease rating (100 = 100% disease control, 0 = no control; dash = not tested)
Summary of the method: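 Tomato seedlings were sprayed to run-off and inoculated next day with Botrytis cinerea spores. They were held 48 h at 20° C in saturated humidity, then 3 days at 24° C. Disease control was rated visually against controls (100 = full, 0 = none).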

Alternaria solani = assay: Test F: test suspension sprayed on tomato seedlings, inoculated next day with Alternaria solani (tomato early blight); visual disease rating (100 = 100% disease control, 0 = no control; dash = not tested)
Summary of the method: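 Tomato seedlings sprayed to run-off with test suspension, inoculated next day with A. solani spores, held saturated at 27° C. for 48 h, then 20° C. for 3 days. Disease visually rated as % control relative to untreated controls.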

SMILES	Test A disease control rating (Zymoseptoria tritici; 50 ppm) [%]	Test B disease control rating ([1]; 50 ppm) [%]	Test C disease control rating ([2]; 50 ppm) [%]	Test D disease control rating (Phakopsora pachyrhizi; 50 ppm) [%]	Test E disease control rating (Botrytis cinerea; 50 ppm) [%]	Test F disease control rating (Alternaria solani; 50 ppm) [%]	other results
COc1c(-c2ccc(F)cc2Cl)c(-c2cccc(Cl)c2Cl)nn(C)c1=O [Compound 108]	100	100	100	70	98	99	
COc1c(-c2ccc(F)cc2Cl)c(-c2cccc(Cl)c2F)nn(C)c1=O [Compound 109]	100	74	99	0	96	85	
COc1c(-c2ccc(F)cc2Cl)c(-c2cccc(F)c2Br)nn(C)c1=O [Compound 110]	100	100	100	79	96	99	
COc1c(-c2ccc(F)cc2Cl)c(-c2cccc(F)c2F)nn(C)c1=O [Compound 116]	100	100	99	52	98	100	
COc1ccc(Cl)c(-c2nn(C)c(=O)cc2-c2ccc(F)cc2Cl)c1 [Compound 117]	99	98	93	47	99	0	
COc1ccc(Br)c(-c2nn(C)c(=O)c(Cl)c2-c2ccc(F)cc2Cl)c1 [Compound 118]	99	100	99	100	98	100	
Cn1nc(-c2cc(F)ccc2Br)c(-c2ccc(F)cc2Cl)c(Cl)c1=O [Compound 119]	100	100	100	99	96	100	
COc1c(-c2ccc(F)cc2Cl)c(-c2cc(F)ccc2Cl)nn(C)c1=O [Compound 120]	100	100	99	77	33	0	
COc1c(-c2ccc(F)cc2Cl)c(-c2cc(F)ccc2Br)nn(C)c1=O [Compound 121]	100	100	99	72	99	99	
COCc1c(-c2ccc(F)cc2Cl)c(-c2ccc(F)cc2Cl)nn(C)c1=O [Compound 122]	100	0	98	0	53	0	
Cn1nc(-c2ccc(F)cc2Cl)c(-c2ccc(F)cc2Cl)c(C(C)(C)O)c1=O [Compound 123]	0	0	0	68	0	0	
CC(=O)c1c(-c2ccc(F)cc2Cl)c(-c2ccc(F)cc2Cl)nn(C)c1=O [Compound 124]	100	0	95	73	88	0	
CCCc1c(-c2ccc(F)cc2Cl)c(-c2cc(OC)ccc2Cl)nn(C)c1=O [Compound 125]	100	0	97	17	99	0	
Cn1nc(-c2cc(F)ccc2Cl)c(-c2ccc(F)cc2Cl)cc1=O [Compound 126]	95	74	98	0	98	15	
Cc1c(-c2ccc(F)cc2Cl)c(-c2cc(F)ccc2Cl)nn(C)c1=O [Compound 128]	100	100	100	99	98	100	
CCc1c(-c2ccc(F)cc2Cl)c(-c2cc(F)ccc2Cl)nn(C)c1=O [Compound 129]	100	100	100	67	99	100	
CCc1c(-c2ccc(F)cc2Cl)c(-c2cc(OC)ccc2Cl)nn(C)c1=O [Compound 134, 5-(2-chloro-4-fluorophenyl)-6-(2-chloro-5-methoxyphenyl)-4-ethyl-2-methyl-3(2H)-pyridazinone]							pest or weed control at 50 ppm (Zymoseptoria tritici; 50 ppm): 100%; pest or weed control at 50 ppm ([1]; 50 ppm): 100%; pest or weed control at 50 ppm ([2]; 50 ppm): 100%; pest or weed control at 50 ppm (Phakopsora pachyrhizi; 50 ppm): 96%; pest or weed control at 50 ppm (Botrytis cinerea; 50 ppm): 98%; pest or weed control at 50 ppm (Alternaria solani; 50 ppm): 100%
COc1ccc(C)c(-c2nn(C)c(=O)c(C)c2-c2ccc(F)cc2Cl)c1 [Compound 135]	100	100	100	100	97	100	
Cc1ccc(Cl)c(-c2nn(C)c(=O)c(C)c2-c2ccc(F)cc2Cl)c1 [Compound 136, 5-(2-chloro-4-fluorophenyl)-6-(2-chloro-5-methylphenyl)-2,4-dimethyl-3(2H)-pyridazinone]							pest or weed control at 50 ppm (Zymoseptoria tritici; 50 ppm): 99%; pest or weed control at 50 ppm ([1]; 50 ppm): 100%; pest or weed control at 50 ppm ([2]; 50 ppm): 100%; pest or weed control at 50 ppm (Phakopsora pachyrhizi; 50 ppm): 97%; pest or weed control at 50 ppm (Botrytis cinerea; 50 ppm): 95%; pest or weed control at 50 ppm (Alternaria solani; 50 ppm): 40%
COc1cc(F)c(F)c(-c2nn(C)c(=O)c(C)c2-c2ccc(F)cc2Cl)c1 [Compound 137]	100	100	100	100	66	100	
COc1ccc(F)c(-c2nn(C)c(=O)c(C)c2-c2ccc(F)cc2Cl)c1 [Compound 138]	100	100	100	100	93	100	
COc1ccc(Cl)c(-c2nn(C)c(=O)c(C3CC3)c2-c2ccc(F)cc2Cl)c1 [Compound 139]	100	86	91	0	93	9	
COc1cccc(-c2nn(C)c(=O)c(Cl)c2-c2ccc(F)cc2Cl)c1Cl [Compound 140]	99	100	99	100	99	100	
Cn1nc(-c2ccccc2)c(-c2ccc(F)cc2Cl)c(Cl)c1=O [Compound 141, 4-chloro-5-(2-chloro-4-fluorophenyl)-2-methyl-6-phenyl-3(2H)-pyridazinone]							pest or weed control at 50 ppm (Zymoseptoria tritici; 50 ppm): 99%; pest or weed control at 50 ppm ([1]; 50 ppm): 98%; pest or weed control at 50 ppm ([2]; 50 ppm): 99%; pest or weed control at 50 ppm (Phakopsora pachyrhizi; 50 ppm): 0%; pest or weed control at 50 ppm (Botrytis cinerea; 50 ppm): 98%; pest or weed control at 50 ppm (Alternaria solani; 50 ppm): 99%
COc1c(-c2ccc(F)cc2Cl)c(-c2ccccc2)nn(C)c1=O [Compound 142, 5-(2-chloro-4-fluorophenyl)-4-methoxy-2-methyl-6-phenyl-3(2H)-pyridazinone]							pest or weed control at 50 ppm (Zymoseptoria tritici; 50 ppm): 95%; pest or weed control at 50 ppm ([1]; 50 ppm): 68%; pest or weed control at 50 ppm ([2]; 50 ppm): 99%; pest or weed control at 50 ppm (Phakopsora pachyrhizi; 50 ppm): 0%; pest or weed control at 50 ppm (Botrytis cinerea; 50 ppm): 98%; pest or weed control at 50 ppm (Alternaria solani; 50 ppm): 98%
CCOC(=O)c1c(-c2ccc(F)cc2Cl)c(-c2ccc(F)cc2Cl)nn(C)c1=O [Compound 143]							Test A disease control rating (Zymoseptoria tritici; 250 ppm): 6%; Test B disease control rating ([1]; 250 ppm): 80%; Test C disease control rating ([2]; 250 ppm): 100%; Test D disease control rating (Phakopsora pachyrhizi; 250 ppm): 0%; Test E disease control rating (Botrytis cinerea; 250 ppm): 0%; Test F disease control rating (Alternaria solani; 250 ppm): 0%
